Results: paper PMC6225302, “Depsidone Derivatives and a Cyclopeptide Produced by Marine Fungus Aspergillus unguis under Chemical Induction and by Its Plasma Induced Mutant” (Molecules : A Journal of Synthetic Chemistry and Natural …, 2018)
≈ marks a conversion by molar mass, not a printed value. Where “and” joins values, the source holds several entries; their conditions need not be identical. Equal values may be shown once. Read-outs that look alike come from different tables or passages of the source. Where a SMILES comes first, the peptide text is derived from it. [ ]: non-standard residue; d: D form. GABA = NCCCC(=O)O

Experiments:
[1] = tested on: Candida albicans (ATCC 10231); assay: Antimicrobial paper disc diffusion method; type: cell-based; details: C. albicans, 10 μg per disc, paper disc diameter 6.0 mm, mean ± SD of three replicates; for zone of inhibition at 10 µg/disc: Candida albicans, ATCC10231
Description: (§1) Preliminary antimicrobial tests for compounds 1‒10 were carried out against pathogenetic strains, including Pseudomonas aeruginosa (ATCC 9027), methicillin-resistant Staphylococcus aureus (A7983, clinical isolate donated by Zhijun Yu in Dalian Friendship Hospital, Dalian, China), Vibrio parahemolyticus (ZouB, aquatic pathogen donated by Chongqing Wen in College of Fishery, Guangdong Ocean University, Zhanjiang, China), and Candida albicans (ATCC 10231) using the disc diffusion method. Muller Hinton agar (MHA) and Sabouraud agar (SA) were used for antibacterial and antifungal tests, respectively. For each sample, 10 μg was added onto paper disc (diameter of 6 mm) for tests. The minimum inhibition concentrations (MICs) of the compounds were tested using microdilution methods. Ampicillin and ketoconazole were taken as positive controls for antibacterial and antifungal tests, respectively. Solvents (MeOH and DMSO) were used as blank controls.

[2] = tested on: Pseudomonas aeruginosa (ATCC 9027); assay: Antimicrobial paper disc diffusion method; type: cell-based; details: P. aeruginosa, 10 μg per disc, paper disc diameter 6.0 mm, mean ± SD of three replicates; for zone of inhibition at 10 µg/disc: Pseudomonas aeruginosa, ATCC9027
Description: as §1

[3] = tested on: Vibrio parahemolyticus (ZouB); assay: Antimicrobial paper disc diffusion method; type: cell-based; details: V. parahemolyticus, incomplete inhibition, 10 μg per disc, paper disc diameter 6.0 mm, mean ± SD of three replicates; for zone of inhibition at 10 µg/disc: Vibrio
Description: as §1

[4] = tested on: methicillin-resistant Staphylococcus aureus (A7983, clinical isolate); assay: Antimicrobial paper disc diffusion method; type: cell-based; details: MRSA; for zone of inhibition at 10 µg/disc: Staphylococcus aureus; for Zone of Inhibition: 10 μg per disc, paper disc diameter 6.0 mm, mean ± SD of three replicates
Description: as §1

[5] = tested on: Candida albicans (ATCC 10231); assay: Antimicrobial microdilution method (MIC); type: cell-based; details: ATCC10231, C. albicans
Description: as §1

[6] = tested on: Pseudomonas aeruginosa (ATCC 9027); assay: Antimicrobial microdilution method (MIC); type: cell-based; details: ATCC9027, P. aeruginosa
Description: as §1

[7] = tested on: methicillin-resistant Staphylococcus aureus (A7983, clinical isolate); assay: Antimicrobial microdilution method (MIC); type: cell-based; details: MRSA
Description: as §1

[8] = target: T1, Acetylcholinesterase (AChE, from electric eels) (Electrophorus electricus, UniProt O42275); assay: AChE inhibition assay (modified Ellman's method); type: biochemical; details: AChE Inhibitory Activity (IC50), 0.2 U/mL, 37 °C
T1 construct: purchased Sigma-Aldrich
Description: Acetylcholinesterase (AChE, from electric eels), acetythiocholine iodide (ATCh), 5,5-dithiobis-(2-nitrobenzoic acid) (DTNB), and bovine serum albumin (BSA, A1933) were purchased from Sigma-Aldrich. 100 mM PBS (pH = 7.4) was prepared with K2HPO4 and KH2PO4. In vitro AChE inhibitory activity was measured in 96-well plates using modified Ellman’s methods. […] Each well contained 1 μL of prepared sample, 49 μL of PBS, 10 μL of enzyme with a final concentration of 0.2 U/mL in BSA ([…] in PBS), and 20 μL of DTNB (5 mM in PBS). Then, the plates were preincubated at 37 °C for 10 min. Afterwards, 20 μL of ATCh (10 mM in PBS) was added into the well. After incubation at 37 °C for 20 min, the 96-well plates were read at 405 nm on the microplate reader, and the inhibition ratios to AChE were calculated using the following equation, where Asample blank stands for the absorbance of a well without enzyme, Asample stands for the absorbance of the treatment, Acontorl stands for the absorbance of the well without the sample, and Ablank stands for the absorbance of the well without the sample and enzyme. Donepezil was taken as a positive control. Inhibition of AChE (%)=[(Acontrol−Ablank)−(Asample−Asample blank)]/(Acontrol−Ablank)×100%
The inhibition rates and concentration logarithm (lnC) values were imported into the Origin 8.0 software (OriginLab Co., Ltd., Northampton, MA, USA). The cubic polynomial regression equation was used to calculate ln(IC50). Then, IC50 was calculated using Microsoft Excel.

[9] = DPPH free radical scavenging assay; details: 0.16 mM DPPH, 30 min in darkness at room temperature
Description: The free radical scavenging potentials of compounds 1‒10 were evaluated in 96-well plates using the DPPH free radical scavenging assay described by Sharma and Bhat. A total of 100 μL of the reaction mixture was composed of 50 μL of 0.16 mM DPPH (Sigma-Aldrich, St. Louis, MO, USA) in methanol and 50 μL of the test compound (in DMSO) with different concentrations (Asample). The reaction mixture was incubated for 30 min in darkness at room temperature. Meanwhile, 50 μL of 0.16 mM DPPH with 50 μL of DMSO was used as control (Acontrol), 50 μL of methanol and 50 μL of different concentrations of the test compound in DMSO were used as the sample blanks (Asample blank), 50 μL methanol with 50 μL DMSO was used as the blank (Ablank), while vitamin C was taken as a positive control. The absorbance was measured at 517 nm on the microplate reader. Scavenging capacity (%)=[(Acontrol−Ablank)−(Asample−Asample blank)]/(Acontrol−Ablank)×100%
The EC50 value is the concentration required to scavenge 50% of DPPH radicals. Likewise, the EC50 was calculated using Origin 8.0 plotting and cubic polynomial regression.

[10] = Brine shrimp larva lethality test; type: in vivo, Artemia salina; details: 24 h at 28 °C, read-out: Larvicidal Activity (LC50)
Description: Compounds 1‒10 were evaluated for larvicidality using the brine shrimp (Artemia salina) larva lethality test. 0.15 g of frozen eggs of brine shrimp larva (purchased from Aijia Aquarium Co., Zhanjiang, China) were activated at room temperature for 12 h. After activation, eggs were added to 1 L of artificial seawater (3% sea salt), ventilated with air for 420 mL/min, then kept at a brightness at 1000 lux and incubated at 28 °C for 24 h. After incubation, the larvae were induced to the top of the separating funnel by phototaxis, and the dead ones on bottom were discharged. Then, in each well of the 96-well plate, 1 μL of test compounds (in DMSO) with different concentrations and 99 μL of seawater containing 20‒30 live larvae were added. After incubation under light at 28 °C for 24 h, recorded the numbers of dead larvae. Finally, 10 μL of the Lucus reagent were added into each well and the total number of brine shrimp larva in the well were counted. DMSO and Hg(NO3)2 were used as blank control and positive control, respectively. Lethality rate (%)=(lethality of treatment−lethality of blank control)/survival rate of blank control×100%
The brine shrimp larva LC50 value is the concentration required to kill 50% of the larvae. Likewise, the LC50 was calculated using Origin 8.0 plotting and cubic polynomial regression.

[11] = tested on: Vibrio parahemolyticus (ZouB); assay: microbe, parasite or virus in culture; type: cell-based
Description: as §1

[12] = Artemia salina (brine shrimp) larvae, live brine shrimp larvae in 96-well plate, other: immersion in seawater containing the compound

T1 sequence (O42275 24-633): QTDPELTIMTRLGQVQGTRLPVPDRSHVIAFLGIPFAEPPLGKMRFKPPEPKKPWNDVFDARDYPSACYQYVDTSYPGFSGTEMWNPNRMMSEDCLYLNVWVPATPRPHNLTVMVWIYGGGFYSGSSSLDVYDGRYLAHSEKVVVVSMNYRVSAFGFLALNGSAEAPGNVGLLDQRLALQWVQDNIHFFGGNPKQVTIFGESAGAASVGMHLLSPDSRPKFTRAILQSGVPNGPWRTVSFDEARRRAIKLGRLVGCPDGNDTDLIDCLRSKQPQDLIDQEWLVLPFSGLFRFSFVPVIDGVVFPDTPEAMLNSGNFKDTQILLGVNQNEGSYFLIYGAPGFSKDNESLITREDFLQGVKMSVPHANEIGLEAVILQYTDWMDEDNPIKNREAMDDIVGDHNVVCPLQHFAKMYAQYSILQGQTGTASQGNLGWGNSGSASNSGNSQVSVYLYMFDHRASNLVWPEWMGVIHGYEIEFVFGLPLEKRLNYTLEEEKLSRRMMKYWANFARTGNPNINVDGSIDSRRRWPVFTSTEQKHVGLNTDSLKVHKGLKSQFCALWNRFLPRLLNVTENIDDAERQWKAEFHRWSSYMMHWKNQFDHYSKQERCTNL

## CC=C(C)c1c(Cl)c(OC)c(C)c2c1Oc1c(Cl)c(O)c(Cl)c(C)c1C(=O)O2 [Compound 4, nidulin]
[1]
  zone of inhibition at 10 µg/disc: 9 mm
[2]
  zone of inhibition at 10 µg/disc: 9.5 ± 0.6 mm
[3]
  Zone of Inhibition: -
[4]
  zone of inhibition at 10 µg/disc: 9 mm
[5]
  MIC: > 102 µM
[6]
  MIC: > 102 µM
[7]
  MIC: 102 µM (≈ 45.4 µg/mL)
[8]
  IC50: > 102 µM
[9]
  EC50: > 102 µM
[10]; [12]
  LC50 at 24 h: 4.5 µM

## CC=C(C)c1c(Cl)c(O)c(C)c2c1Oc1cc(O)c(Cl)c(C)c1C(=O)O2 [Compound 7, aspergillusidone C]
[1]
  zone of inhibition at 10 µg/disc: 7.9 ± 0.2 mm
[2]
  zone of inhibition at 10 µg/disc: 10 mm
[3]
  zone of inhibition at 10 µg/disc: 9.7 ± 0.6 mm
[4]
  zone of inhibition at 10 µg/disc: 13.7 ± 2.3 mm
[5]
  MIC: > 102 µM
[6]
  MIC: 25.6 µM (≈ 10.1 µg/mL)
[7]
  MIC: > 102 µM
[11]; Vibrio
  MIC: > 102 µM
[8]
  IC50: > 102 µM
[9]
  EC50: > 102 µM
[10]; [12]
  LC50 at 24 h: 72 µM

## C/C=C(\C)c1cc(O)c(C)c2c1Oc1cc(O)cc(C)c1C(=O)O2 [Compound 6, unguinol]
[1]
  zone of inhibition at 10 µg/disc: 8 ± 0.5 mm
[2]
  zone of inhibition at 10 µg/disc: 8.7 ± 2.1 mm
[3]
  zone of inhibition at 10 µg/disc: 7 mm
[4]
  zone of inhibition at 10 µg/disc: 7 mm
[5]
  MIC: > 102 µM
[6]
  MIC: 102 µM (≈ 33.4 µg/mL)
[7]
  MIC: > 102 µM
[11]; Vibrio
  MIC: > 102 µM
[8]
  IC50: > 102 µM
[9]
  EC50: > 102 µM
[10]; [12]
  LC50 at 24 h: > 102 µM

## CC1(C)S[C@@H]2[C@H](NC(=O)[C@H](N)c3ccccc3)C(=O)N2[C@H]1C(=O)O [Ampicillin, reference compound]
[1]
  Zone of Inhibition: -
[2]
  zone of inhibition at 10 µg/disc: 12 ± 1.4 mm
[3]
  zone of inhibition at 10 µg/disc: 9 mm
[4]
  zone of inhibition at 10 µg/disc: 14 mm
[6]
  MIC: 1.6 µM (≈ 0.559 µg/mL)
[7]
  MIC: 6.4 µM (≈ 2.24 µg/mL)
[11]; Vibrio, V. parahemolyticus, microdilution method, read-out: MIC
  MIC: 102 µM (≈ 35.8 µg/mL)

## CC(=O)N1CCN(c2ccc(OCC3COC(Cn4ccnc4)(c4ccc(Cl)cc4Cl)O3)cc2)CC1 (stereo not drawn) [Ketoconazole, reference compound]
[1]
  zone of inhibition at 10 µg/disc: 22 mm
[2]
  Zone of Inhibition: -
[3]
  Zone of Inhibition: -
[4]
  Zone of Inhibition: -
[5]
  MIC: 1.9 µM (≈ 1.01 µg/mL)

## CC=C(C)c1c2c(c(C)c(O)c1C(=O)O)OC(=O)c1c(C)cc(O)cc1O2 [Compound 9, aspergillusidone A]
[1]
  zone of inhibition at 10 µg/disc: 15.5 ± 2.2 mm
[2]
  zone of inhibition at 10 µg/disc: 16 mm
[3]
  zone of inhibition at 10 µg/disc: 8.3 ± 0.6 mm
[4]
  zone of inhibition at 10 µg/disc: 17.7 ± 0.6 mm
[5]
  MIC: 6.4 µM (≈ 2.37 µg/mL)
[6]
  MIC: 102 µM (≈ 37.9 µg/mL)
[7]
  MIC: 12.8 µM (≈ 4.74 µg/mL)
[11]; Vibrio
  MIC: > 102 µM
[8]
  IC50: 56.7 µM and 56.8 µM
[9]
  EC50: > 102 µM
[10]; [12]
  LC50 at 24 h: 51.2 µM

## O=C1O[C@H]([C@@H](O)CO)C(O)=C1O [Vitamin C, vitamin C, reference compound]
[9]
  EC50: 31.8 µM

## C/C=C(\C)c1cc(O)c(C)c(OC(=O)c2c(/C(C)=C/C)cc(O)c(C)c2O)c1 [Compound 2, agonodepside A]
[1]
  zone of inhibition at 10 µg/disc: 6 ± 0.5 mm
[2]
  Zone of Inhibition: -
[3]
  zone of inhibition at 10 µg/disc: 8 mm
[4]
  Zone of Inhibition: -
[11]; Vibrio
  MIC: > 102 µM
[8]
  IC50: > 102 µM
[9]
  EC50: > 102 µM
[10]; [12]
  LC50 at 24 h: > 102 µM

## CC(C)[C@H]1NC(=O)[C@H](Cc2ccccc2)NC(=O)[C@@H](C(C)C)NC(=O)[C@@H](C)NC(=O)CCCNC(=O)[C@@H](Cc2c[nH]c3ccccc23)NC(=O)[C@@H](C)NC1=O [Compound 10, unguisin A] (cyclo(F[dV][dA][dW][GABA][dA][dV]))
[11]; V. parahemolyticus, microdilution method, read-out: MIC
  MIC: >102.4 µM
[8]
  IC50: > 102 µM
[10]; brine shrimp (Artemia salina), in vivo, brine shrimp larvae
  LC50 at 24 h: > 102 µM

## CC=C(C)c1c(Br)c(O)c(C)c2c1Oc1c(Br)c(O)cc(C)c1C(=O)O2 [Compound 5, aspergillusidone F]
[1]
  zone of inhibition at 10 µg/disc: 7.5 ± 0.6 mm
[2]
  zone of inhibition at 10 µg/disc: 11.9 ± 0.2 mm
[3]
  zone of inhibition at 10 µg/disc: 6.3 ± 0.6 mm
[4]
  zone of inhibition at 10 µg/disc: 14.5 ± 0.6 mm
[5]
  MIC: > 102 µM
[6]
  MIC: 6.4 µM (≈ 3.1 µg/mL)
[7]
  MIC: 25.6 µM (≈ 12.4 µg/mL)
[11]; Vibrio
  MIC: > 102 µM
[8]
  IC50: > 102 µM
[9]
  EC50: > 102 µM
[10]; [12]
  LC50 at 24 h: 12.8 µM

## CC=C(C)c1c(Cl)c(O)c(C)c2c1Oc1c(Cl)c(O)c(Cl)c(C)c1C(=O)O2 [Compound 3, nornidulin]
[1]
  zone of inhibition at 10 µg/disc: 12.1 ± 0.2 mm
[2]
  zone of inhibition at 10 µg/disc: 12.2 ± 0.3 mm
[3]
  Zone of Inhibition: -
[4]
  Zone of Inhibition: -
[5]
  MIC: > 102 µM
[6]
  MIC: > 102 µM
[8]
  IC50: > 102 µM
[9]
  EC50: > 102 µM
[10]; Artemia salina (brine shrimp) larvae, in vivo, other: compound added to the seawater holding the larvae
  LC50 at 24 h: 12.8 µM
